The values that follow come from patent publication US20250109151A1, “SILYL-LIPID N-ACYL L-HOMOSERINE LACTONES AS QUORUM SENSING MOLECULES” (The Regents of the University of California, priority 2022, published 2025).

One may read the Log P as a log measure of how a compound divides between an organic and an aqueous phase. As a reminder, the EC50 is the midpoint of the concentration-response curve. A high value points to lower potency in that assay. What is called IC50 is the concentration at which inhibition is half-maximal.

One data set deals with TNF-α release. The conditions noted are these: LPS-induced model, at 30 min; cited from earlier work.
The conditions of data set [1]: cited from earlier work.
Data set [2] addresses T1, LasR (Pseudomonas aeruginosa, UniProt P25084).
T1 construct: expressed in transfected cells; host or cells: E. coli (reporter strain)
In words: cell-based. The conditions noted are these: for Emax: read-out: Maximum Activation (%); for designation of the sample in the LasR agonism table: words in brackets after the sample code. The procedure: 15 compounds were assayed for LasR agonism using a beta-glo reporter assay in E. coli.

Data set [3] has as its target T1, LasR. In words: LasR antagonism assay. It is filed as cell-based. As to conditions: for Emax: read-out: Maximum Activation (%). The procedure: 3 compounds were assayed for LasR antagonism.
The IC50, […], and Max Activation for each sample is reported below.

T1 sequence (P25084 whole entry): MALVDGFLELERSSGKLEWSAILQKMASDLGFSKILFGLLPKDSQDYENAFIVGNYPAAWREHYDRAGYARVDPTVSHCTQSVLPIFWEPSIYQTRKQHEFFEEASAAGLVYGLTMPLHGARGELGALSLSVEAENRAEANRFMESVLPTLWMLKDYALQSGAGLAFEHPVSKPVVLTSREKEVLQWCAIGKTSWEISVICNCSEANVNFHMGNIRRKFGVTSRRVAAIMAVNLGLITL

In the case of `Cc1ccc(-n2nc(C(C)(C)C)cc2NC(=O)Nc2ccc(OCCN3CCOCC3)c3ccccc23)cc1` [BIRB-796], the TNF-α suppression in the data set on TNF-α release is listed as 41%.
Regarding `O=C(O)[C@@H]1CCCN1C(=O)OCC1c2ccccc2-c2ccccc21` [Fmoc-Pro], in data set [1], the “Log P” value is reported as 0.094.
Turning to `C[Si]1(C)CC(C(=O)O)N(C(=O)OCC2c3ccccc3-c3ccccc32)C1` (stereo not drawn) [Fmoc-Sip], the “Log P” value in data set [1] is on record as 1.3.
For the compound `CCCCCCCC[Si](C)(C)CCCCC(=O)N[C@H]1CCOC1=O` [KMM 5-55-2, (S)-5-(dimethyl(octyl)silyl)-N-(2-oxotetrahydrofuran-3-yl)pentanamide], the Emax on LasR [2] is 101%.
`CC[Si](CC)(CC)CCCCC(=O)N[C@H]1CCOC1=O` [KMM 5-56-2, (S)-N-(2-oxotetrahydrofuran-3-yl)-5-(triethylsilyl)pentanamide]: at LasR [2], the Emax amounted to 94.3%.
The same measure, in the same setting: as for `C[Si](C)(CCCCC(=O)N[C@H]1CCOC1=O)c1ccccc1` [LSD 1-32, (S)-5-(dimethyl(phenyl)silyl)-N-(2-oxotetrahydrofuran-3-yl)pentanamide], the figure is 96.1%; as for `CCCC[Si](C)(C)CCCCC(=O)N[C@H]1CCOC1=O` [LSD 1-34, (S)-5-(butyldimethylsilyl)-N-(2-oxotetrahydrofuran-3-yl)pentanamide], 101%.
`CCCC[Si](C)(C)CCCCCCC(=O)N[C@H]1CCOC1=O` [LSD 1-35, (S)-7-(butyldimethylsilyl)-N-(2-oxotetrahydrofuran-3-yl)heptanamide]: on LasR [2], the Emax worked out at 90.4%.
Turning to `CCCCCCCC[Si](C)(C)CCCCCCC(=O)N[C@H]1CCOC1=O` [LSD 1-59, (S)-7-(dimethyl(octyl)silyl)-N-(2-oxotetrahydrofuran-3-yl)heptanamide], on LasR [2], the Emax stood at 25% and the “designation of the sample in the LasR agonism table” value (“designation of the sample” for short) was “LSD 1-59 (inactive)”.
In the case of `C[Si](C)(CCCCCCC(=O)N[C@H]1CCOC1=O)c1ccccc1` [LSD 2-47, (S)-7-(dimethyl(phenyl)silyl)-N-(2-oxotetrahydrofuran-3-yl)heptanamide], the Emax at LasR [2] was 99.7%.
Regarding `CCCC[Si](CCCC)(CCCC)CCCCC(=O)N[C@H]1CCOC1=O` [LSD 2-65, (S)-N-(2-oxotetrahydrofuran-3-yl)-5-(tributylsilyl)pentanamide], the Emax at LasR [2] worked out at 79.8%.
Still for that read-out and setting: the value for `C[Si](C)(CCCCC(=O)CC(=O)N[C@H]1CCOC1=O)c1ccccc1` [LSD 2-113, (S)-7-(dimethyl(phenyl)silyl)-3-oxo-N-(2-oxotetrahydrofuran-3-yl)heptanamide] was 106%; that for `C[Si](C)(C)O[Si](C)(C)CCCCC(=O)N[C@H]1CCOC1=O` [LSD 2-120, (S)-N-(2-oxotetrahydrofuran-3-yl)-5-(1,1,3,3,3-pentamethyldisiloxaneyl)pentanamide] was 94%.
As to `C[Si](C)(c1ccccc1)c1ccc(CC(=O)N[C@H]2CCOC2=O)cc1` [LSD 133, (S)-2-(4-(dimethyl(phenyl)silyl)phenyl)-N-(2-oxotetrahydrofuran-3-yl)acetamide], on LasR [2], the EC50 was determined as 0.015 µM, the Emax was 9% and the “designation of the sample” value is “LSD 133 (antagonist)”. Moreover, at LasR [3], the IC50 worked out at 14.6 µM and the Emax was 97.2%.
For `CCCC[Si](C)(C)c1ccc(CC(=O)N[C@H]2CCOC2=O)cc1` [LSD 137, (S)-2-(4-(butyldimethylsilyl)phenyl)-N-(2-oxotetrahydrofuran-3-yl)acetamide], on LasR [2], the Emax was found to be 14.1% and the “designation of the sample” value is “LSD 137 (antagonist)”. Moreover, at LasR [3], the IC50 stood at 9.3 µM and the Emax came out at 101%.
As for `CC[Si](CC)(CC)CCCCC(=O)CC(=O)N[C@H]1CCOC1=O` [LSD-92, (S)-3-oxo-N-(2-oxotetrahydrofuran-3-yl)-7-(triethylsilyl)heptanamide], the Emax at LasR [2] is 86%.
